Source: patent US20040082606A1, “Excitatory amino acid receptor antagonists” (priority 2003, published 2004)

Test system: dural protein extravasation
Experiment: Animal model of dural protein extravasation (electrical stimulation of the trigeminal ganglion, Evans Blue)
Assay type: in vivo
Conditions: administered orally to rats
Protocol: The following animal model may be employed to determine the ability of the compounds of Formula I or Formula Ia to inhibit protein extravasation, an exemplary functional assay of the neuronal mechanism of migraine.
A. Harlan Sprague-Dawley rats (225-325 g) or guinea pigs from Charles River Laboratories (225-325 g) are anesthetized with sodium pentobarbital intraperitoneally (65 mg/kg or 45 mg/kg respectively) and are placed in a stereotaxic frame David Kopf Instruments) with the incisor bar set at −3.5 mm for rats or −4.0 mm for guinea pigs. Following a midline sagital scalp incision, two pairs of bilateral holes are drilled through the skull (6 mm posterially, 2.0 and 4.0 mm laterally in rats; 4 mm posteriorly and 3.2 and 5.2 mm laterally in guinea pigs, all coordinates referenced to bregma). […]
D. A fluorescence microscope (Zeiss) equipped with a grating monchromator and a spectrophotometer is used to quantify the amount of Evans Blue dye in each sample. An excitation wavelength of approximately 535 nm is utilized and the emission intensity at 600 nm is determined. […] This facilitates the computer-controlled movement of the stage with fluorescence measurements at 25 points ([…]) on each dural sample. The mean and standard deviation of the measurements are determined by the computer. […]

Structure (SMILES): CCOC(=O)[C@@H]1C[C@H]2C[C@@H](CN3CC(F)(F)C[C@H]3C(=O)OCC)CC[C@H]2CN1.Cl.Cl [3S,4aR,6S,8aR Ethyl 6-(((2S)-2-Ethoxycarbonyl)4,4-difluoropyrrolidinyl)methyl)-1,2,3,4,4a,5,6,7,8,8a-decahydroisoquinoline-3-carboxylate.dihydrochloride]
- ID100 (dose that inhibits the extravasation by 100%): approximately 0.01 ng/Kg
